Laboratory results as given in patent US9845285B2, “Crystalline solid and amorphous forms of (−)-halofenate and methods related thereto” (CymaBay Therapeutics, Inc., priority 2005, dated 2017).
Where two headings read alike, the source gives them in different places.

How the values were obtained:
cytochrome P450 2C9 = cytochrome P450 2C9 (Homo sapiens, UniProt P11712); conditions: cited from earlier work
[1] = cited from earlier work
physchem = conditions: for solubility: thermodynamic from solid
Description: Solubility studies were done on Form A in water and a variety of organic solvents. […] Solubility was also determined in these solvents at approximately 50° C.

[2] = Automated moisture sorption/desorption; type: physicochemical; conditions: for solid form after moisture sorption/desorption: XRPD after desorption
Description: Moisture sorption/desorption data were collected on a VTI-SGA-100 Vapor Sorption Analyzer. Sorption and desorption data were collected over a range of 5% to 95% relative humidity (RH) at 10% RH intervals under a nitrogen purge. Samples were not dried prior to analysis. Equilibrium criteria used for analysis were less than 0.0100% weight change in 5 minutes with a maximum equilibration time of 3 hours if the weight criterion was not met. Data were not corrected for the initial moisture content of the samples. Sodium chloride and polyvinylpyrolidone were used as calibration standards. A sample was taken after desorption was complete and analyzed by powder X-ray diffraction for potential form change.

[3] = Slurry interconversion studies in cyclohexane; type: physicochemical; conditions: for form resulting from slurry: cyclohexane, ambient temperature, 50° C. and 5° C.
Description: Samples of mixed forms by XRPD and pure forms were used for interconversion studies (see FIG. 37).
A saturated solution was prepared by vortexing and sonicating ca. 4 mg (−)-halofenate Form A in approximately 5-6 mL cyclohexane. This solution was filtered into a sample containing a mixture of ca. 40 mg Form A/Form D. The mixture was slurred on a rotating wheel at ambient temperature for approximately 6 days. The solids were recovered by vacuum filtration and vacuum dried at ambient temperature. The dry solids were analyzed by polarized light microscopy and XRPD.
The experiment was repeated using a shaker block at ca 50° C. using 2 mL of cyclohexane and slurried for ca. 3 days. and the supernatant was removed through decantation. Both the ambient and 50° C. experiments were repeated using pure forms A and E (ca. 20 mg of each form). The ambient experiment was also repeated with A, B, D, and E (ca. 10 mg of each form, slurred approximately 7 days) on a rotating wheel and on a magnetic stir plate in the refrigerator (ca 5° C.). When conversion was not deemed complete by XRPD solids were re-slurried in cyclohexane.
Interconversion studies were carried out in cyclohexane at ambient temperature 50° C. and 5° C. (see FIG. 37). The solvent was chosen because of the high solubility of the various forms in common organic solvents. Forms A, B, D and E were used as starting materials.

[4] = Thermal analysis (DSC/TGA), decomposition; type: physicochemical
Description: Differential scanning calorimetry (DSC) was performed using a TA Instruments 2920 differential scanning calorimeter. The sample was placed into an aluminum DSC pan and the weight accurately recorded. The pan was covered with a lid and then crimped. The sample cell was equilibrated at 25° C. and heated under a nitrogen purge at a rate of 10° C./min, up to a final temperature of 350° C. Indium metal was used as the calibration standard. Reported temperatures are at the transition maxima.
Thermographic analyses (TGA) was performed using a TA Instruments 2920 thermographic analyzer. The sample was placed into an aluminum sample pan and inserted into a TGA furnace. The sample was first equilibrated at 25° C., then heated under a nitrogen at a rate of 10° C./min, up to a final temperature of 350° C. Nickel and ALUMEL™ were used as calibration standards.

[5] = Solid form stability on drying, slurrying and storage; type: physicochemical; conditions: for conversion to other solid forms: upon drying, slurrying or over time

Sequence of cytochrome P450 2C9 (P11712 whole entry): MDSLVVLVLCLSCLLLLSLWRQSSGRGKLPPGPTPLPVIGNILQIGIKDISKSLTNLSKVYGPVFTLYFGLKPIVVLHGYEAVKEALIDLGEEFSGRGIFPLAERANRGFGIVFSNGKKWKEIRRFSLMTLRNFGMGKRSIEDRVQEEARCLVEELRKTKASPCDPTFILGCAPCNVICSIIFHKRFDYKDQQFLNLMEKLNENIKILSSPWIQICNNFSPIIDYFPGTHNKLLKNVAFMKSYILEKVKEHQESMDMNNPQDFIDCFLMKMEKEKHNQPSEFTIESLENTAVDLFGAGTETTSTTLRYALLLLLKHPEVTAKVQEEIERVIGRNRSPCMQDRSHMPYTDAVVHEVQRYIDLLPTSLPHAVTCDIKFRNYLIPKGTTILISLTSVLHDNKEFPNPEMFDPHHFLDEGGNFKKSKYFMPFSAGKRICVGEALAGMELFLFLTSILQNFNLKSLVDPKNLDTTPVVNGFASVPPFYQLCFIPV

O=C(O)C(Oc1cccc(C(F)(F)F)c1)c1ccc(Cl)cc1 (racemic) [halofenic acid, 4-Chlorophenyl-(3-trifluoromethylphenoxy)-acetic acid]
inhibition of cytochrome P450 2C9 (cytochrome P450 2C9): inhibited

CC(=O)NCCOC(=O)C(Oc1cccc(C(F)(F)F)c1)c1ccc(Cl)cc1 (racemic) [racemic halofenate, 2-acetamidoethyl 4-chlorophenyl-(3-trifluoromethylphenoxy)-acetate]
side effects ([1]; Friedberg et al., Clin. Res. 1986): gastrointestinal bleeding from stomach and peptic ulcers | drug-drug interactions ([1]; with agents such as warfarin sulfate (COUMADIN), Vesell and Passantanti 1972): some indications of drug-drug interactions

O=C(O)C(Oc1cccc(C(F)(F)F)c1)c1ccc(Cl)cc1 (single isomer, unassigned; (-)) [(−)-enantiomer of halofenic acid]
ability to inhibit cytochrome P450 2C9 compared to the (+)-enantiomer (less active) (cytochrome P450 2C9; versus (+)-enantiomer of halofenic acid, U.S. Pat. No. 6,262,118): about twenty-fold

CC(=O)NCCOC(=O)C(Oc1cccc(C(F)(F)F)c1)c1ccc(Cl)cc1 (single isomer, unassigned; (-)) [(−)-halofenate, (−)-2-acetamidoethyl 4-chlorophenyl-(3-trifluoromethylphenoxy)-acetate]
solubility (physchem; organic solvent or mixture): > 300 mg/mL | solubility (physchem; water): < 1 mg/mL

CC(=O)NCCOC(=O)C(Oc1cccc(C(F)(F)F)c1)c1ccc(Cl)cc1 (stereo not shown) [Form A]
relative solubility in crystallization solvents (physchem; some crystallization solvents): lower solubility | hygroscopicity [2]: non-hygroscopic | solid form after moisture sorption/desorption [2]: essentially unchanged | weight gain ([2]; at 65% relative humidity (RH)): no weight gain | weight gain ([2]; at 65-95% RH): 1.6% | loss of weight gain in desorption study ([2]; desorption at 5% RH): All of the weight gain was lost | form resulting from slurry [3]: resulted in Form A | relative stability of crystal form ([3]; from slurry interconversion in cyclohexane): most stable crystal form | decomposition onset [4]: approximately 200 °C | relative thermodynamic stability of crystalline solid form [5]: most thermodynamically stable | relative thermodynamic stability of crystalline solid form ([5]; listed as form A): most stable crystalline solid form | storage stability ([5]; long periods (months)): could be stored for long periods (months) without decomposition

CC(=O)NCCOC(=O)C(Oc1cccc(C(F)(F)F)c1)c1ccc(Cl)cc1 (stereo not shown) [Form B]
form resulting from slurry [3]: resulted in Form A | conversion to other solid forms [5]: could be converted to other solid forms upon drying or slurrying

CC(=O)NCCOC(=O)C(Oc1cccc(C(F)(F)F)c1)c1ccc(Cl)cc1 (stereo not shown) [Form C]
conversion to other solid forms [5]: could be converted to other forms upon drying or slurrying | conversion to other solid forms ([5]; listed as form C): over time conversion to crystal form E (below) occurred

CC(=O)NCCOC(=O)C(Oc1cccc(C(F)(F)F)c1)c1ccc(Cl)cc1 (stereo not shown) [Form D]
hygroscopicity [2]: non-hygroscopicity | solid form after moisture sorption/desorption [2]: remained Form D | weight gain ([2]; at 95% RH): less than 0.1% | form resulting from slurry [3]: resulted in Form A | decomposition onset [4]: approximately 225 °C | conversion to other solid forms [5]: could be converted to Form A upon slurring

CC(=O)NCCOC(=O)C(Oc1cccc(C(F)(F)F)c1)c1ccc(Cl)cc1 (stereo not shown) [Form E]
hygroscopicity [2]: non-hygroscopicity | solid form after moisture sorption/desorption [2]: remained Form E | weight gain ([2]; at 95% RH): less than 0.2% | form resulting from slurry [3]: resulted in Form A | decomposition onset [4]: approximately 225 °C | conversion to other solid forms [5]: could be converted to Form A upon slurring
